In this assay the test system is M. tuberculosis H37Rv growth inhibition. Briefly: Mycobacterium tuberculosis H37Rv growth inhibition, cell based, confirmatory dose response (AID 1949).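 Further: bacteria grown 7 days with compound before Alamar blue readout.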

In brackets after ≈: the same amount, converted by molar mass. Records with an inconclusive call do not appear. Activity calls are given as the source filed them. How the calls were made is not given here.

With `CC1CCCN(CCC(=O)c2ccc(Br)cc2)C1` (stereo unspecified), the concentration for half-maximal inhibition (IC50) is 2.8 µg/mL (≈ 9.03 µM).

As to `CC(C)(C)c1cc(Cl)c(O)c(NC(=S)NC(=O)c2cccnc2)c1`, the IC50 was below 0.1 µg/mL.

As to `N#Cc1cc2c(cc1C#N)OC(c1ccccc1)=NN2`, the IC50 is 16.4 µg/mL (≈ 63.1 µM).

Take `O=C(Nc1nnc(-c2ccccc2Cl)o1)c1ccco1`: the IC50 is 1.83 µg/mL (≈ 6.32 µM).

With `COc1ccc(C(=O)CCN2CCCC(C)C2)cc1` (stereo unspecified), the IC50 is 35 µg/mL (≈ 134 µM).

For the compound `S=C(NCCc1c[nH]c2ccccc12)Nc1ccc(Nc2ccccc2)cc1`, the IC50 was 2.81 µg/mL (≈ 7.27 µM).

Take `CN(C)c1ccc(NC(=O)c2ccncc2)cc1`: the IC50 was 2.89 µg/mL (≈ 12 µM).

Regarding `COc1ccccc1-c1c(C)oc2cc(OCc3ccccc3)ccc2c1=O`, the IC50 is 9.15 µg/mL (≈ 24.6 µM).

As for `NC(=O)CSc1nnc(SCc2ccc(Cl)cc2)s1`, the concentration for half-maximal inhibition (IC50) was 5.19 µg/mL (≈ 15.6 µM).

As to `CCc1cccc(NC(=O)c2ccc3ccccc3n2)c1`, the half-inhibitory concentration (IC50) is 11.4 µg/mL (≈ 41.1 µM).

Regarding `O=C(CC1CCCCC1)c1c(O)c2ccccc2oc1=O`, the IC50 was > 50 µg/mL (inactive).

`COc1cc(CNC(C)c2ccccc2)cc(Br)c1OCc1ccccc1` (stereo unspecified): the IC50 is 6.21 µg/mL (≈ 14.6 µM).

Turning to `Cc1c(OC(=O)c2cccc([N+](=O)[O-])c2)ccc2c1CCCC2`, the IC50 was 2.64 µg/mL (≈ 8.48 µM).

For the compound `CCc1ccc(C2C3=C(CC(C)(C)CC3=O)NC3=C2C(=O)c2ccccc23)cc1` (stereo unspecified), the half-inhibitory concentration (IC50) was 4.44 µg/mL (≈ 11.6 µM).

Consider `CN(C)c1ccc(Nc2nc(-c3ccc(O)cc3O)cs2)cc1`, for which the IC50 was 1.54 µg/mL (≈ 4.7 µM).

As for `O=C1C(=O)N(Cc2ccccc2Cl)c2ccc(Cl)cc21`, the IC50 is 9.36 µg/mL (≈ 30.6 µM).

In the case of `Cc1cc(OCCCCn2ccnc2)ccc1C(C)C`, the IC50 is 2.57 µg/mL (≈ 9.43 µM).

For `COc1ccc(F)cc1CN1CCN(c2ncnc3scc(-c4ccc(F)cc4)c23)CC1`, the IC50 was > 50 µg/mL (inactive).

As for `O=[N+]([O-])c1ccc(-c2[nH]c(-c3cccc(F)c3)nc2-c2ccccc2)cc1`, the IC50 was 2.62 µg/mL (≈ 7.29 µM).

Turning to `Cc1ccc(OCC(O)CN2CCc3ccccc3C2)c(C(C)(C)C)c1` (stereo unspecified), the IC50 was 5.9 µg/mL (≈ 16.7 µM).

With `CCOc1ccc(NC(=O)COc2ccc(SC)cc2)cc1`, the half-maximal inhibitory concentration (IC50) was below 0.1 µg/mL.

Regarding `Cc1cc2ncn(CCCOc3ccccc3C)c2cc1C`, the half-inhibitory concentration (IC50) was 4.63 µg/mL (≈ 15.7 µM).

Regarding `CCc1ccc(C(=S)Nc2ccccc2)nc1`, the IC50 was 2.23 µg/mL (≈ 9.2 µM).

Consider `OC(CNC1CCCC1)Cn1c2ccccc2c2ccccc21` (stereo unspecified), for which the IC50 was 8.93 µg/mL (≈ 29 µM).

As to `c1ccc2c(NCCc3c[nH]c4ccccc34)c3ccccc3nc2c1`, the IC50 is 1.51 µg/mL (≈ 4.48 µM).

For the compound `O=[N+]([O-])c1ccc(NC(=S)NCc2ccc(F)cc2)cc1`, the IC50 was 4.86 µg/mL (≈ 15.9 µM).

Consider `Cc1cnc(Nc2cccc(Cl)c2)s1`, for which the IC50 was 14.3 µg/mL (≈ 63.7 µM).

In the case of `O=C(Nc1cccc(I)c1)C(Cl)Cl`, the IC50 is 5.84 µg/mL (≈ 17.7 µM).

With `OCc1cn(-c2ccccc2)nc1-c1ccc2ccccc2c1`, the IC50 was 4.25 µg/mL (≈ 14.1 µM).

For `O=C(CN1CCN(Cc2ccccc2)CC1)Nc1ccc([N+](=O)[O-])cc1C(=O)c1ccccc1`, the IC50 is 2.78 µg/mL (≈ 6.06 µM).

For `Cc1ccc(C(=O)Nc2ccc(N3CCN(C)CC3)cc2)cc1Cl`, the IC50 was 46.2 µg/mL (≈ 134 µM).

For `O=C(Nc1ccc(C(F)(F)F)cc1)C1COc2ccccc2O1` (stereo unspecified), the IC50 is 37.9 µg/mL (≈ 117 µM).

For the compound `N#C/C(=C/c1ccc(N2CCCCC2)o1)c1cccc(F)c1`, the IC50 was 5.98 µg/mL (≈ 20.2 µM).

In the case of `Cc1ccc(NC(=S)c2ccccn2)c(C)c1`, the half-maximal inhibitory concentration (IC50) is 4.22 µg/mL (≈ 17.4 µM).

For the compound `CCCCOC(=O)COc1ccc2c(=O)c(Oc3ccc(OCC)cc3)c(C)oc2c1`, the IC50 was 1.59 µg/mL (≈ 3.73 µM).

Consider `CC1=CC(C)(C)N2C(=O)C(=O)c3cc(OC(=O)c4ccccc4C)cc1c32`, for which the 50% inhibitory concentration (IC50) is 8.23 µg/mL (≈ 22.8 µM).

Take `Cc1cc(C)nc(/N=C(\N)Nc2cc(Cl)ccc2Cl)n1`: the half-maximal inhibitory concentration (IC50) is 12.3 µg/mL (≈ 39.7 µM).

On to `COc1ccc(CN2CCC(N(CCc3ccccc3)Cc3ccccc3)CC2)c(OC)c1`, for which the half-maximal inhibitory concentration (IC50) is 2.61 µg/mL (≈ 5.87 µM).

As for `O=C(Oc1ccccc1)c1cccc(COC(=O)c2cnccn2)c1`, the IC50 was 28 µg/mL (≈ 83.8 µM).

With `OC(COCCC12CC3CC(CC(C3)C1)C2)CN1CCc2ccccc2C1` (stereo unspecified), the 50% inhibitory concentration (IC50) is 3.49 µg/mL (≈ 9.44 µM).

For the compound `CCOC(=O)CSc1n[nH]c(-c2ccc(Cl)cc2)n1`, the IC50 is 2.99 µg/mL (≈ 10 µM).

In the case of `CCOc1ccc(C(=O)Nc2ccc(N3CCN(C(=O)c4cccs4)CC3)c(Cl)c2)cc1Br`, the concentration for half-maximal inhibition (IC50) was 0.53 µg/mL (≈ 0.966 µM).

`CC(NC(=O)c1ccc(Br)cc1)c1ccc2c(c1)OCCO2` (stereo unspecified): the IC50 was 5.81 µg/mL (≈ 16 µM).

On to `COc1ccc(OCC(=O)Nc2cccc(-c3nc4ccccc4c(=O)o3)c2)cc1`, for which the 50% inhibitory concentration (IC50) is 37.1 µg/mL (≈ 92.2 µM).

In the case of `COc1ccccc1C1CC(=O)C2=C(C1)NC(C)=C(C(=O)OC1CCCC1)C2c1ccc(O)cc1` (stereo unspecified), the 50% inhibitory concentration (IC50) is 4.74 µg/mL (≈ 10 µM).

Consider `COc1ccc(CCNC(=O)c2ccc(C#CC(C)(C)O)s2)cc1`, for which the 50% inhibitory concentration (IC50) is below 0.1 µg/mL.

For the compound `COc1cc2ccccc2cc1C(=O)NCCC12CC3CC(CC(C3)C1)C2`, the half-inhibitory concentration (IC50) was 3.27 µg/mL (≈ 9 µM).

Consider `Cc1cccc2sc(NC(=O)c3ccc([N+](=O)[O-])cc3Cl)nc12`, for which the IC50 was 19.4 µg/mL (≈ 55.8 µM).

`CCOC(=O)C(C)n1cnc2scc(-c3ccc(CC)cc3)c2c1=O` (stereo unspecified): the 50% inhibitory concentration (IC50) was 3.9 µg/mL (≈ 10.9 µM).

On to `O=C(CSc1ccc(Br)cc1)Nc1ccc([N+](=O)[O-])cc1`, for which the half-inhibitory concentration (IC50) was 23.6 µg/mL (≈ 64.2 µM).

As to `C1=C(c2ccc(Oc3ccccc3)cc2)N2CCN=C2S1`, the IC50 was 5.23 µg/mL (≈ 17.8 µM).

Usually IC50 stands for the concentration at which inhibition is half-maximal.

The record behind these values is PubChem BioAssay AID1949 (Southern Research Institute, 2009).
